Reference: publication PMC9704087, “Solid lipid nanoparticle as an effective drug delivery system of a novel curcumin derivative: formulation, release in vitro and pharmacokinetics in vivo” (Pharmaceutical Biology, 2022)

How the values were obtained:
[1] = Pharmacokinetic study after intravenous injection; format: in vivo; conditions: male, Sprague Dawley, rat, SD rats, 5 mg/kg intravenous, plasma, n = 5
Description: Sprague Dawley (SD) male rats aged 8 weeks weighing 250–300 g were provided by the Laboratory Animal Center of Southwest Medical University and were placed in a pathogen-free environment, and had free access to food and water. Studies involving animals were approved (approval number: SCXK (Chuan) 2013-17) by the Ethics Committee of Southwest Medical University.
Rats that were used for the pharmacokinetic study were fasted for more than 12 h before use and had free access to water. Rats were randomly divided into two groups (n = 5), namely, the Cur group and CUD-SLN group, Rats in both groups were injected intravenously with 5 mg/kg of corresponding drugs. Approximately, 200 µL of blood was collected using a heparin-coated syringe at 2, 5, 15 and 30 min and at 1, 2, 4, 6, 8, 12, 24, 30, 36, 48, 54, 60, 72 and 84 h after injection. Blood was centrifuged for 10 min at 3000 rpm, and plasma was obtained. Furthermore, 50 µL of acetate buffer (pH 3.5) was added to 100 μL of plasma. After vortexing for 1 min, 0.5 mL of extract solvent (methanol–ethyl acetate 10:90, v/v) was added to the mixture, the mixture was vortexed again for 3 min, followed by centrifugation for 3 min at 8000 rpm. Then, 0.5 mL of supernatant was removed and evaporated with nitrogen flow. Next, 200 μL of reconstituted solvent (acetonitrile contains 0.1% phosphoric acid) was added to the dry residue, vortexed for 4 min, sonicated for 4 min, and centrifuged for 10 min at 10,000 rpm, A total of 50 μL of the supernatant was removed for the high-performance liquid chromatography (HPLC) (1260 Infinity II, Agilent Technologies, Santa Clara, CA) and calculated with the standard curve (Cur: A = 157.21 C + 0.148, R^2=0.9991, range: (0.02, 12) μg/mL; CUD: A = 18.159 C + 0.4884, R^2=0.9998, range: (0.02, 5) μg/mL; A = 46.552 C – 179.81, R^2=0.9997, range: (5, 160) μg/mL). […] The detection wavelength was 409 nm (Guo et al. [2020]).
(§1) Evaluation of the comprehensive design experiment was performed by SPSS 17.0 software (SPSS Inc., Chicago, IL). Fitting of the release curve was performed by Origin 8.0 software. Pharmacokinetic data were processed by DAS 2.1.1 software to obtain relevant pharmacokinetic parameters. Student’s t-test for two groups and one-way ANOVA for multiple groups were employed for the data analysed. p < 0.05 was considered statistically significant.

[2] = In vitro drug release, dialysis membrane diffusion technique; format: physicochemical
Description: The release of CUD-SLN and free CUD in vitro was studied using a dialysis membrane diffusion technique (MWCO 8000–14,000) (He et al. [2020]). Due to the low solubility of CUD in the buffer, Tween 80 was added to satisfy the leaking conditions. A total of 500 mL of PBS buffer with 10% w/v Tween 80 (pH 7.35) was used as a release medium. Next, 2 mL of freshly prepared CUD-SLN (1 mg/mL) was transferred to the dialysis bags, and 2 mg free CUD (suspended in 2 mL 0.5% w/v CMC-Na) was transferred to dialysis bags as a control. The test bags were immersed in a release medium at 37 ± 0.5 °C and stirred at 100 rpm using a dissolution apparatus (ZRS-8G, Intelligent dissolution tester, ZRS-8G, Tianjin, China). An aliquot of the sample (1 mL) was removed from the release medium at 15 and 30 min and 1, 2, 4, 6, 8, 12, 24 and 48 h. After each sampling, the blank dissolution medium was replenished with the same temperature and volume. Removed samples were filtered through a 0.22 μm filter, the CUD content was analysed by a UV–vis spectrophotometer, and the analytical method described before. The in vitro release data of the drug were fitted with the zero-order release equation, the first-order release equation and the Higuchi equation (Ma et al. [2019]).
as §1

Row | AUC(0-inf) [1] [ng·h/mL] | AUC(0-t) [1] [ng·h/mL] | Cmax [1] [ng/mL] | Tmax [1] [h] | clearance ([1]; read-out: CLz (clearance) (converted)) [mL/min/kg] | MRT last ([1]; read-out: MRT0–t) [h] | MRT inf ([1]; read-out: MRT0–∞) [h] | half-life ([1]; read-out: t1/2z (half-life) (converted)) [h] | Molecule | cumulative release of CUD at 48 h ([2]; PBS with 10% w/v Tween 80, pH 7.35, 37 °C, 100 rpm, n = 6) [%] | First-order equation k1 ([2]; fit of in vitro release data) | Higuchi's equation kh ([2]; fit of in vitro release data) | Zero order equation k0 ([2]; fit of in vitro release data)
1 | 4880 | 4600 | 332 | 6 | 171 | 9.53 | 10.8 | 5.6 | COc1cc(/C=C/C(=O)CC(=O)/C=C/c2ccc(O)c(OC)c2)ccc1O [Cur, Curcumin] | – | – | – | –
2 | – | – | – | – | – | – | – | – | Carbonic acid 17-(1,5-dimethyl-hexyl)-10,13-dimethyl-2,3,4,7,8,9,10,11,12,13,14,15,16,17-tetradecahydro-1H-cyclopenta[a]phenanthren-3-yl ester 4-[7-(4-hydroxy-3-methoxy-phenyl)-3,5-dioxo-hepta-1,6-dienyl]-2-methoxy-phenyl ester [CUD] | 60.24 ± 5.08 | 0.2258 | 8.6574 | 1.0410
